According to patent US20140357713A1, “ANTIMICROBIAL COMPOUNDS AND METHODS OF USE” (NexMed Holdings, Inc., priority 2012, published 2014):
Structures can show the parent of a compound that is named as a salt. Where two headings read alike, the source gives them in different places.

What was measured:
[1] = Solubility (Sol., Table 1); type: physicochemical
pH (Table 1) = type: physicochemical
[2] = system: Escherichia coli (ATCC 25922); assay: Minimum inhibitory concentration (MIC) assay, Example 33; type: cell-based; conditions: Escherichia coli
Procedure, shortened: (§1)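 Antibacterial MICs come from CLSI-guided broth microdilution in CAMHB at 35° C, using a McFarland 0.5-standardized inoculum diluted 1:100 before 1:2 addition to drug wells.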

[3] = system: Pseudomonas aeruginosa (ATCC 27853); assay: as above; type: cell-based; conditions: Pseudomonas aeruginosa
Procedure, shortened: as §1

[4] = system: Staphulococcus aureus (ATCC 29213); assay: as above; type: cell-based, Staphylococcus aureus; conditions: Staphylococcus aureus
Procedure, shortened: as §1

[5] = system: Candida albicans (ATCC 90029); assay: as above; type: cell-based; conditions: Candida albicans
Procedure, shortened: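 MIC read per CLSI after incubation at 35° C. Colonies in RPMI 1640 adjusted to OD530 0.08–0.13, diluted 1:50 and 1:20 to twice test density, then added 1:2 to wells holding 2-fold serial drug dilutions in RPMI 1640 (CLSI microdilution).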

[6] = system: Aspergillus niger (CMCC 98003); assay: as above; type: cell-based; conditions: for MIC: Aspergillus niger; for MIC Aspergillus niger: n = 2
Procedure, shortened: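 Conidia gently probed from sporulating colonies into RPMI 1640, set to 0.09-0.13 at 530 nm, then diluted 1:50 and mixed 1:2 with 2-fold serially diluted compounds. Following CLSI guidelines, incubation was at 35 °C before the MIC was recorded.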

[7] = system: Candida albicans (ATCC 90029); assay: Time kill study, Example 33 (0 to 5 min); type: cell-based; conditions: 1×MIC
Procedure, shortened: (§2)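 CLSI time-kill: suspension + compound solution, 1:1 by volume. Sampled 0 min, 30 sec, 1 min, 5 mins; diluted in test medium, streaked on agar. Colonies counted at 24 to 48 hrs; read-out Log10 CFU/mL.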

[8] = system: Escherichia coli (ATCC 25922); assay: Time kill study, Example 33 (0 to 5 min); type: cell-based; conditions: 1×MIC
Procedure, shortened: as §2

[9] = system: Pseudomonas aeruginosa (ATCC 27853); assay: Time kill study, Example 33 (0 to 5 min); type: cell-based; conditions: 1×MIC
Procedure, shortened: as §2

[10] = system: Staphylococcus aureus (ATCC 29213); assay: Time kill study, Example 33 (0 to 5 min); type: cell-based; conditions: 1×MIC
Procedure, shortened: as §2

[11] = system: Aspergillus niger (CMCC 98003); assay: Time kill study, Example 33 (0 to 5 min); type: cell-based; conditions: 1×MIC
Description: Thirty compounds were tested for antimicrobial activity using standard procedures and standard strains for both the minimum inhibitory concentration (MIC) assay and a time kill study. Both the MIC assay and the time kill study were performed according to Clinical and Laboratory Standards Institute (CLSI) guidelines. Three bacteria strains, Escherichia coli (ATCC 25922), Pseudomonas aeruginosa (ATCC 27853), Staphulococcus aureus (ATCC 29213), and two fungus strains, Candida albicans (ATCC 90029) and Aspergillus niger (CMCC 98003), were used in the experiments.
The viable counts in Log10 CFU/mL at each time point were recorded.
Time kill studies. Strain suspensions were prepared as described above for the MIC test, and strain suspensions and compound solutions were mixed in the same volume. Samples were removed at specified times including 0 min, 30 sec, 1 min and 5 mins, were diluted in the test medium and streaked on agar. Colonies were counted after 24 to 48 hrs of incubation.
The MIC values for thirty compounds against Escherichia coli, Pseudomonas aeruginosa, Staphulococcus aureus, Candida albicans, and Aspergillus niger were recorded and are presented in Table 3 and Table 4.

[12] = ATCC25922, Table 19 summary of Example 33 and Example 35
[13] = ATCC25922, read-out: MIC E. coli, n = 1
[14] = ATCC25922, read-out: MIC E. coli, n = 2
[15] = ATCC27853, read-out: MIC P. aeruginosa, n = 1
[16] = ATCC27853, read-out: MIC P. aeruginosa, n = 2
[17] = ATCC29213, read-out: MIC S. aureus, n = 1
[18] = ATCC29213, read-out: MIC S. aureus, n = 2
[19] = ATCC90029, read-out: MIC Candida albicans, n = 1
[20] = ATCC90029, read-out: MIC Candida albicans, n = 2
[21] = CMCC98003, read-out: MIC Aspergillus niger

| Structure (SMILES) | melting point | Sol. [1] | pH (pH (Table 1)) | MIC [2, 12] | MIC [2, 13] | MIC [2, 14] | MIC ([3]; ATCC27853, Table 19 summary) | MIC [3, 15] | MIC [3, 16] | MIC ([4]; ATCC29213, Table 19 summary) | MIC [4, 17] | MIC [4, 18] | MIC ([5]; ATCC90029, Table 19 summary) | MIC [5, 19] | MIC [5, 20] | MIC ([6]; CMCC98003) | MIC [6, 21] | MIC Aspergillus niger [6] | Viable counts, Candida albicans time kill study ([7]; 0.5 min) | Viable counts, Candida albicans time kill study ([7]; 1 min) | other results |
| --- | --- | --- | --- | --- | --- | --- | --- | --- | --- | --- | --- | --- | --- | --- | --- | --- | --- | --- | --- | --- | --- |
| CCCCCCCCCCCCOC(=O)C(C)(C)N(C)C (as salt: hydrochloride) [Nex-58, Dodecyl 2-(dimethylamino)-2-methylpropanoate hydrochloride] | 68 to 74 °C | – | – | – | – | – | – | – | – | – | – | – | – | – | – | – | – | – | – | – | – |
| CCCCCCCCCCCC(C)OC(=O)C(C)N(C)C (centres unmarked) (as salt: hydrochloride) [Nex-64, Tridecan-2-yl 2-(dimethylamino)propanoate hydrochloride] | 88 to 94 °C | – | – | – | – | – | – | – | – | – | – | – | – | – | – | – | – | – | – | – | – |
| CCCCCCCCCCCCOC(=O)C(C)N(C)C (centres unmarked) (as salt: maleate) [Nex-20, Dodecyl 2-(dimethylamino)propanoate maleate] | 65 to 70 °C | – | – | – | – | – | – | – | – | – | – | – | – | – | – | – | – | – | – | – | – |
| CCCCCCCCCCCCOC(=O)C(C)N(C)C (centres unmarked) (as salt: methanesulfonate) [Nex-22, Dodecyl 2-(dimethylamino)propanoate methanesulfonate] | 66 to 72 °C | – | – | – | – | – | – | – | – | – | – | – | – | – | – | – | – | – | – | – | – |
| CCCCCCCCCCCCOC(=O)C(C)N(C)C (centres unmarked) (as salt: salt) [Nex-30, Dodecyl 2-(dimethylamino)propanoate ethanesulfonate] | 45 to 50 °C | – | – | – | – | – | – | – | – | – | – | – | – | – | – | – | – | – | – | – | – |
| CCCCCCCCCCCCOC(=O)C(C)N(C)C (centres unmarked) (as salt: salt) [Nex-46, Dodecyl 2-(dimethylamino)propanoate 2-hydroxyethanesulfonate] | 58 to 63 °C | – | – | – | – | – | – | – | – | – | – | – | – | – | – | – | – | – | – | – | – |
| CCCCCCCCCCCCOC(=O)CN(C)C [Nex-52, Dodecyl 2-(dimethylamino)acetate hydrochloride] | – | 49% | 3.30 | 1560 µg/mL | 1560 µg/mL | 1560 µg/mL | 6250 µg/mL | 6250 µg/mL | 6250 µg/mL | 200 µg/mL | 200 µg/mL | 100 µg/mL | 50 µg/mL | 50 µg/mL | 50 µg/mL | 3130 µg/mL | 3130 µg/mL | 3130 µg/mL | 5.19 Log10 CFU/mL | 5.17 Log10 CFU/mL | Viable counts, Candida albicans time kill study ([7]; 5 min): 5.23 Log10 CFU/mL; Viable counts, Candida albicans time kill study ([7]; time 0): 5.24 Log10 CFU/mL; Viable counts, Escherichia coli time kill study ([8]; 0.5 min): 6.12 Log10 CFU/mL; Viable counts, Escherichia coli time kill study ([8]; 1 min): 5.86 Log10 CFU/mL; Viable counts, Escherichia coli time kill study ([8]; 5 min): 5.24 Log10 CFU/mL; Viable counts, Escherichia coli time kill study ([8]; time 0): 5.95 Log10 CFU/mL; Viable counts, Pseudomonas aeruginosa time kill study ([9]; 0.5 min): 4.7 Log10 CFU/mL; Viable counts, Pseudomonas aeruginosa time kill study ([9]; 1 min): 4 Log10 CFU/mL; Viable counts, Pseudomonas aeruginosa time kill study ([9]; 5 min): <3.52 Log10 CFU/mL; Viable counts, Pseudomonas aeruginosa time kill study ([9]; time 0): 5.56 Log10 CFU/mL; Viable counts, Staphylococcus aureus time kill study ([10]; 0.5 min): 6.27 Log10 CFU/mL; Viable counts, Staphylococcus aureus time kill study ([10]; 1 min): 6.12 Log10 CFU/mL; Viable counts, Staphylococcus aureus time kill study ([10]; 5 min): 6.13 Log10 CFU/mL; Viable counts, Staphylococcus aureus time kill study ([10]; time 0): 6.26 Log10 CFU/mL; Viable counts, Aspergillus niger time kill study ([11]; 0.5 min): 5.28 Log10 CFU/mL; Viable counts, Aspergillus niger time kill study ([11]; 1 min): 5.28 Log10 CFU/mL; Viable counts, Aspergillus niger time kill study ([11]; 5 min): 4.95 Log10 CFU/mL; Viable counts, Aspergillus niger time kill study ([11]; time 0): 5.30 Log10 CFU/mL |
| CCCCCCCCCCOC(=O)C(C)N(C)C (centres unmarked) [Nex-68, Decyl 2-(dimethylamino)propanoate hydrochloride] | – | 97% | 0.87 | 780 µg/mL | 780 µg/mL | 1560 µg/mL | 3130 µg/mL | 3130 µg/mL | 3130 µg/mL | 3130 µg/mL | 3130 µg/mL | 3130 µg/mL | 390 µg/mL | 390 µg/mL | 200 µg/mL | 3130 µg/mL | 3130 µg/mL | 3130 µg/mL | 5.35 Log10 CFU/mL | 5.15 Log10 CFU/mL | Viable counts, Candida albicans time kill study ([7]; 5 min): 5.13 Log10 CFU/mL; Viable counts, Candida albicans time kill study ([7]; time 0): 5.47 Log10 CFU/mL; Viable counts, Escherichia coli time kill study ([8]; 0.5 min): 5.53 Log10 CFU/mL; Viable counts, Escherichia coli time kill study ([8]; 1 min): 4.3 Log10 CFU/mL; Viable counts, Escherichia coli time kill study ([8]; 5 min): <3.52 Log10 CFU/mL; Viable counts, Escherichia coli time kill study ([8]; time 0): 5.88 Log10 CFU/mL; Viable counts, Pseudomonas aeruginosa time kill study ([9]; 0.5 min): 5.18 Log10 CFU/mL; Viable counts, Pseudomonas aeruginosa time kill study ([9]; 1 min): 4.88 Log10 CFU/mL; Viable counts, Pseudomonas aeruginosa time kill study ([9]; 5 min): 4.87 Log10 CFU/mL; Viable counts, Pseudomonas aeruginosa time kill study ([9]; time 0): 5.78 Log10 CFU/mL; Viable counts, Staphylococcus aureus time kill study ([10]; 0.5 min): 5.82 Log10 CFU/mL; Viable counts, Staphylococcus aureus time kill study ([10]; 1 min): 5.88 Log10 CFU/mL; Viable counts, Staphylococcus aureus time kill study ([10]; 5 min): 5.57 Log10 CFU/mL; Viable counts, Staphylococcus aureus time kill study ([10]; time 0): 6.39 Log10 CFU/mL; Viable counts, Aspergillus niger time kill study ([11]; 0.5 min): 5.25 Log10 CFU/mL; Viable counts, Aspergillus niger time kill study ([11]; 1 min): 5.25 Log10 CFU/mL; Viable counts, Aspergillus niger time kill study ([11]; 5 min): 5.25 Log10 CFU/mL; Viable counts, Aspergillus niger time kill study ([11]; time 0): 5.25 Log10 CFU/mL |
| CCCCCCCCOC(=O)C(C)N(C)C (centres unmarked) [Nex-70, Octyl 2-(dimethylamino)propanoate hydrochloride] | – | 134% | 0.88 | 780 µg/mL | 780 µg/mL | 780 µg/mL | 3130 µg/mL | 3130 µg/mL | 3130 µg/mL | 3130 µg/mL | 3130 µg/mL | 3130 µg/mL | 780 µg/mL | 780 µg/mL | 780 µg/mL | 12500 µg/mL | 12500 µg/mL | 12500 µg/mL | 5.53 Log10 CFU/mL | 5.51 Log10 CFU/mL | Viable counts, Candida albicans time kill study ([7]; 5 min): 5.49 Log10 CFU/mL; Viable counts, Candida albicans time kill study ([7]; time 0): 5.55 Log10 CFU/mL; Viable counts, Escherichia coli time kill study ([8]; 0.5 min): <4.0 Log10 CFU/mL; Viable counts, Escherichia coli time kill study ([8]; 1 min): <3.70 Log10 CFU/mL; Viable counts, Escherichia coli time kill study ([8]; 5 min): <3.52 Log10 CFU/mL; Viable counts, Escherichia coli time kill study ([8]; time 0): 5.0 Log10 CFU/mL; Viable counts, Pseudomonas aeruginosa time kill study ([9]; 0.5 min): <4.0 Log10 CFU/mL; Viable counts, Pseudomonas aeruginosa time kill study ([9]; 1 min): <3.70 Log10 CFU/mL; Viable counts, Pseudomonas aeruginosa time kill study ([9]; 5 min): <3.52 Log10 CFU/mL; Viable counts, Pseudomonas aeruginosa time kill study ([9]; time 0): 5.62 Log10 CFU/mL; Viable counts, Staphylococcus aureus time kill study ([10]; 0.5 min): 6.42 Log10 CFU/mL; Viable counts, Staphylococcus aureus time kill study ([10]; 1 min): 6.37 Log10 CFU/mL; Viable counts, Staphylococcus aureus time kill study ([10]; 5 min): 6.22 Log10 CFU/mL; Viable counts, Staphylococcus aureus time kill study ([10]; time 0): 6.37 Log10 CFU/mL |
